# Laboratory results: US20240307220A1, “Combination Therapy to Treat Temperature Sensitive Mutant Tumors” (H. LEE MOFFITT CANCER CENTER AND RESEARCH INSTITUTE INC., priority 2021, published 2024)
# Key:
# [1] = test system: H1299 cells stably expressing p53 ts mutants; assay: Western blot of p53 target gene induction in H1299 stably expressing ts p53 mutants, with CPT; format: cell-based, human
# Procedure: FIGS. 1B and 1C show representative p53 ts mutants stably expressed in H1299 cells tested for induction of target gene expression after 20 hrs at 32° C. CPT (0.5 μM for 20 hrs) was added when cells were shifted to 32° C. […] P53 binding to PUMA promoter was determined by ChIP. The results are average of 3 experiments (mean±SD).
# FIGS. 10A to 10F show induction of endogenous targets by ts p53 mutants. P53 ts mutants were stably expressed in H1299 cells using lentivirus vector. Cells were tested for induction of target gene expression after 20 hrs at 32° C. by Western blot. CPT (0.5 μM for 20 hrs) was added when cells were shifted to 32° C. A138V was used as a benchmark to facilitate comparison between gels.
# (§1) Western blot. Cells were lysed in lysis buffer (50 mM Tris-HCl pH 8.0, 5 mM EDTA, 150 mM NaCl, 0.5% Nonidet P-40, 1×protease inhibitor cocktail) and centrifuged for 10 minutes at 14,000×g, and the insoluble debris was discarded. Cell lysate (10-50 µg of protein) was fractionated by SDS-PAGE and transferred to Immobilion P filters (Millipore). The filter was blocked for 1 hr with phosphate buffered saline (PBS) containing 5% non-fat dry milk and 0.1% Tween 20, incubated with primary and secondary antibodies, and the filter was developed using SuperSignal reagent (Thermo Scientific). MDM2 was detected using monoclonal antibody 3G9 produced in house. Other markers were detected using commercial antibodies: Actin (Sigma A5441), p53-DO1 (BD Pharmingen #554293), p21 (BD Pharmingen #556430), PUMA (CellSignaling #12450), PARP (BD Pharmingen #556362), p53 pSer15 (CellSignaling #9284), p53 acetyl-Lys382 (CellSignaling #2525).
# Validation of ts p53 mutants from cancer. We selected 17 most frequently observed ts mutants for validation in p53-null H1299 cells. These ts mutants together represent 9.6% (2,358/24,679) of tumors with p53 missense mutations (Table 3), or 64% (2,358/3,658) of tumors with ts p53 mutations. The ability of these mutants to activate the p21 and PUMA promoters at 32° C. were confirmed in reporter assays after transient expression (FIG. 2A, FIG. 8A-8C). […]
# [2] = test system: H1299 stably expressing ts p53 mutants; assay: Apoptosis (PARP cleavage) and MTS cell viability in H1299 stably expressing ts p53 mutants treated with CPT; format: cell-based, human
# Procedure: FIGS. 3A to 3D show induction of growth arrest and cell death by p53 ts mutants. […] DNA replication rate was measured by scintillation counting and normalized to cell number. […] PARP cleavage was determined by Western blot. FIGS. 3C and 3D show H1299 stably expressing ts p53 mutants treated with CPT at indicated concentrations for 48 hrs at 37° C. or 32° C. Cell viability was determined by MTS assay. The results are average of 3 experiments (mean±SD).
# as §1, with “The filter was blocked for 1 hr with phosphate buffered saline (PBS) containing 5% non-fat dry milk and 0.1% Tween 20, incubated with primary and secondary antibodies, and the filter was developed using SuperSignal reagent (Thermo Scientific).” left out
# Cell proliferation and viability assays. DNA replication was analyzed using ^3H-thymidine incorporation assay. […] The incorporated ^3H-thymidine was analyzed by liquid scintillation counting. […]
# UC3 bladder cancer cells = assay: UC3 colony formation after 2 hrs drug treatment, washout and 32° C. or 37° C. incubation; format: cell-based; conditions: 2 hrs drug at 37° C., washout, 32° C. vs 37° C. 24 hrs, then 7 days at 37° C.
# Procedure: FIGS. 17A and 17B show hypothermia treatment given after chemotherapy enhances drug response in bladder cancer. […] The washed cells were incubated at 32° C. or 37° C. for 24 hrs, followed by 7 days at 37° C. and crystal violet staining for colony formation.
# Standard bladder intravesical chemotherapy involves 1-2 hr irrigation with drugs at 37° C. or 42° C. The effect of treating cells with 32° C. hypothermia after chemotherapy was tested to avoid interference with drug uptake. TS mutant p53 activation peaks 6-8 hrs after shift to 32° C., which should cooperate with chemotherapy-induced DNA damage to induce cell death. […] Saline irrigation of up to 24 hrs is routinely performed after transurethral resection of bladder tumor (TURBT) procedure to prevent clotting. Therefore, irrigation with cooled saline after intravesical chemotherapy is expected to be well-tolerated and safe.
smiles,measurement,setting,value
"CC[C@@]1(O)C(=O)OCc2c1cc1n(c2=O)Cc2cc3ccccc3nc2-1 [CPT, Camptothecin]",ts p53 Ser15 phosphorylation and K382 acetylation,"[1]; CPT 0.5 μM for 20 hrs at 32° C., Western blot",stimulated
same,PUMA expression in the absence of p53,"[1]; H1299 without p53, CPT 0.5 μM for 20 hrs",modestly stimulated PUMA expression
same,induction of endogenous PUMA,"[1]; stably transfected H1299 with ts mutants, CPT 0.5 μM for 20 hrs at 32° C., Western blot",could be stimulated
same,apoptosis indicated by PARP cleavage,"[2]; 0.5 μM CPT for 48 hrs at 32° C., 1% FBS",cooperated with CPT to induce apoptosis
same,cell viability (MTS assay),[2]; CPT for 48 hrs at 32° C.,loss of cell viability
same,effect of 32° C. for 24 hrs after drug on growth inhibition (colony formation),UC3 bladder cancer cells,significantly increased the growth inhibition potency
